Test results taken from paper PMC2861598, “Ligand Binding and Crystal Structures of the Substrate-Binding Domain of the ABC Transporter OpuA” (PLoS ONE, 2010).
Where “and” joins values, the source holds several entries; their conditions need not be identical. Equal values may be shown once. Entries after “also recorded” stand apart in the source; their conditions may differ. Read-outs that look alike come from different tables or passages of the source.

Key:
[1] = target: T1, OpuAC (substrate-binding domain of OpuA) (Lactococcus lactis, UniProt Q9RQ05); test: Ligand binding to purified OpuAC, intrinsic protein fluorescence (direct titration); conditions: for ΔFmax: pH7.0
T1 sequence (Q9RQ05 320-573): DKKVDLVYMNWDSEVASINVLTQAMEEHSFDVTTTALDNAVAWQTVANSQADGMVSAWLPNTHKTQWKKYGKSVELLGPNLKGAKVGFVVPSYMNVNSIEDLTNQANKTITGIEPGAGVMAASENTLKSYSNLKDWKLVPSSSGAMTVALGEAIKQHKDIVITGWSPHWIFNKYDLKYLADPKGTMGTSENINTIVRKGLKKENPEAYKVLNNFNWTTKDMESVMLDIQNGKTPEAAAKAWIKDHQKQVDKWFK
Description: (§1) Fluorescence spectra were obtained with a Fluorolog®-3 (Jobin Yvon) spectrofluorometer. A quartz-cuvette containing 800 µL of protein sample was incubated for 10 minutes at 25°C under constant stirring before stepwise addition of the substrate (or buffer as control), using a Hamilton syringe pump (Harvard apparatus). Samples were incubated for 5 seconds before the fluorescence signal was collected for 20 seconds to obtain an averaged value at each substrate concentration.
(§2) For the intrinsic protein fluorescence measurements, the excitation and emission wavelengths were 295 and 360 nm (and slit widths of 1 and 5 nm), respectively. To determine the salt dependence of ligand-binding to purified OpuA, the buffer was exchanged to various KPi concentrations (12.5–250 mM), pH 7.0, 20% glycerol and 0.05% DDM, using a NAP10 column (GE Healthcare). Corrections for background fluorescence changes were made by titrations with buffer.
(§3) Fluorescence titrations were analyzed essentially as described by Lanfermeijer. Curve fitting was performed in Origin (OriginLab).

[2] = target: T2, OpuAC (Lactococcus lactis, UniProt Q9RQ05); test: Competitive inhibition of glycine betaine-induced fluorescence changes; format: binding
T2 sequence (Q9RQ05 320-573): T1 sequence (Q9RQ05 320-573)
Description: as §1, §2, §3

[3] = test system: OpuA reconstituted in proteoliposomes; test: Substrate transport in OpuA-containing proteoliposomes, filter-based assay; format: biochemical, Lactococcus lactis; conditions: 14C-labeled substrate, 50 µM (51 µM) or 5 mM, up to 30 min, 200 mM KPi pH 7 external
Description: Proteoliposomes were prepared as described previously by Geertsma et al. with an ATP regenerating system present and using 200 mM KPi, pH 7, as external medium. The transport activity was measured using a filter-based assay as described by Geertsma et al. in a time dependent way (up to 30 min), using a fixed concentration of 50 µM or 5 mM of substrate.

[4] = test system: OpuAΔCBS; test: Ligand binding to OpuAΔCBS; set-up: species or system Lactococcus lactis; conditions: data not shown
[5] = target: T2, OpuAC; test: Isothermal titration calorimetry of glycine betaine binding; conditions: ITC
Description: 200 µL of OpuAC (concentrated to 50 µM in 150 mM KPi, pH 7) was added to the cell. […] Typically, 20 injections of 2 µL volume were made with intervals of 120 seconds between each addition.

[6] = test system: OpuAΔSBD; test: Ligand binding to OpuAΔSBD; set-up: species or system Lactococcus lactis; conditions: data not shown
[7] = target: T3, purified OpuA (Lactococcus lactis subsp. lactis, UniProt Q7DAU8); test: Filter-based assay with radio-labeled glycine betaine (ammonium sulfate precipitation); format: binding
T3 sequence (Q7DAU8 1-573): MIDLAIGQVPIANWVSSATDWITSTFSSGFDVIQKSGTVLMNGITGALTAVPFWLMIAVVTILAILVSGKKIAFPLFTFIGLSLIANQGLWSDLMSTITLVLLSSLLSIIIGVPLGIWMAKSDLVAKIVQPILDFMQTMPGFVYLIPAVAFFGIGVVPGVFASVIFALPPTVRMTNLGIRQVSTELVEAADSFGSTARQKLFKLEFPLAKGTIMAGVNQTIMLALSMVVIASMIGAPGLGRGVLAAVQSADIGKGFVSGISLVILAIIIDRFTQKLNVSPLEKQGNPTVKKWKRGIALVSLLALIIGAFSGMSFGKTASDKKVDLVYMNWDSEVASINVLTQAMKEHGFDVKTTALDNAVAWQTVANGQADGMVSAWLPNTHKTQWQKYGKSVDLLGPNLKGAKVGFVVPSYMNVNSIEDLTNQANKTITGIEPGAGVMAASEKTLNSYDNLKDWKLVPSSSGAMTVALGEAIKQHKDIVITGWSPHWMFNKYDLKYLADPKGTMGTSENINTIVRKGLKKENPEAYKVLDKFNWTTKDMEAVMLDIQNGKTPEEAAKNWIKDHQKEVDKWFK
T3 sequence (Q9KIF7 1-408 partner): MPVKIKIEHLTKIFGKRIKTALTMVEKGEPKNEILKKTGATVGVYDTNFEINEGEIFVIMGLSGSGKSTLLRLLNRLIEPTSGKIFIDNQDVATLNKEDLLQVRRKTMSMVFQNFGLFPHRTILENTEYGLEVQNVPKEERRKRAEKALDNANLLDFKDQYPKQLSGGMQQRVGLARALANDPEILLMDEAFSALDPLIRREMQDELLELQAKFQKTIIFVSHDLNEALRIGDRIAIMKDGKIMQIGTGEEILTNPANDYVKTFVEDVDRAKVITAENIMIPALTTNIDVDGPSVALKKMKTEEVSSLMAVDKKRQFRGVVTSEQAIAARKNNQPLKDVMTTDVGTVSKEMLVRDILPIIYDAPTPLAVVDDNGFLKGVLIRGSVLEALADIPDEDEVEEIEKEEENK
Description: This method is based on the principle that upon salting-out of the protein (by ammonium sulfate), the substrate remains trapped in the ligand-binding site. For these measurements, purified OpuA in the presence of 0.05% (w/v) n-dodecyl-β-maltopyranoside (DDM) was mixed such that the protein (at a final concentration of 100 µg/mL) was in a buffer composed of 10, 50 or 250 mM KPi pH7.0, 20% glycerol and 0.05% DDM. The binding assays were carried in a volume of 100 µL. […] The mixture was filtered rapidly through 0.45 µm pore-size cellulose nitrate filters. The filters were washed twice with 2 ml ammonium sulfate solution. Subsequently, the filters were placed in an open plastic vial and dried under heating in an oven at 37°C for 2 hours. The radioactivity on the filters was measured via liquid scintillation counting, using emulsifier plus scintillation liquid (Perkin Elmer). Measurements were corrected for background signals and the average of the corrected data was fitted as described under fluorescence measurements.

[8] = target: T3, purified OpuA; test: Glycine betaine binding to purified DDM-solubilized OpuA, intrinsic protein fluorescence; conditions: for Kd / ΔFmax: pH7.0
Description: as §1, §2, §3

[9] = target: T3, purified OpuA; test: as above; conditions: OpuA solubilized in DDM; over all salt concentrations (10–250 mM KPi); read-out: dissociation constant (Kd)
[10] = target: OpuA in a lipidic environment; set-up: method as in PMID 14609945; conditions: read-out: dissociation constant; cited from earlier work

C[N+](C)(C)CC(O)CC(=O)[O-] (centres unmarked) [Carnitine]
fluorescence response on direct titration ([1]; ∼0.5 µM OpuAC): did not reach a stable end-level
Ki [2]: 65000 ± 11000 µM
transport into OpuA-containing proteoliposomes [3]: not taken up

C[N+]1(C)CCC[C@H]1C(=O)[O-] [Proline betaine]
Ki ([2]; inhibition of glycine betaine binding, ∼0.5 µM OpuAC): 41 ± 8 µM
Ki ([2]; inhibition of glycine betaine binding, ∼0.5 µM OpuAC, listed as proline betaine): ~41 µM

O=C(O)[C@@H]1CCCN1 [Proline]
transport into OpuA-containing proteoliposomes [3]: no accumulation of the proline
transport into OpuA-containing proteoliposomes ([3]; listed as proline): entered the vesicles slowly but at an equal rate in the proteoliposomes and the liposomes devoid of OpuA

C[N+](C)(C)CC(=O)[O-] [glycine betaine]
effect of deletion of the CBS domains on dissociation constant [4]: did not alter the dissociation constant
bound glycine betaine ([1]; 19.6 µM OpuAC in 150 mM KPi pH 7.0): 0.74 mol glycine betaine per mol of OpuAC
bound substrate ([1]; 19.6 µM OpuAC in 150 mM KPi pH 7.0, data fit): 14.5 ± 1.6 µM
ΔFmax ([1]; OpuAC, 12.5 mM KPi): 23.6±1.1%
ΔFmax ([1]; OpuAC, 50 mM KPi): 23.4±0.9%
ΔFmax ([1]; OpuAC, 250 mM KPi): 23.1±1.2%
maximal fluorescence change ([1]; OpuAC, over all salt concentrations): 23–24%
amount of glycine betaine bound ([1]; very high protein concentration): 0.74 mol/mol OpuAC
glycine betaine bound per mol of OpuAC ([5]; 50 µM OpuAC, 150 mM KPi pH 7, 25°C): 0.7 mol
Gibbs free energy ([5]; 25°C): -7.5 kcal/mol
enthalpy change (ΔH) ([5]; 25°C): -3.8 ± 0.1 kcal/mol
glycine betaine binding [6]: did not show any glycine betaine binding
maximal number of binding sites ([7]; all salt concentrations): ~3 nmol/mg OpuA
Kd ([7]; averaged from duplicate measurements for all salt concentrations (10, 50, 250 mM KPi), 30°C): 7.3 µM
increase of dissociation constant in DDM-solubilized state versus lipidic environment [8]: around 10 fold
Kd ([8]; 12.5 mM KPi): 6 ± 0.5 µM
ΔFmax ([8]; 12.5 mM KPi): 9.9±0.3%
Kd ([8]; 50 mM KPi): 6 ± 0.7 µM
ΔFmax ([8]; 50 mM KPi): 10.8±0.4%
Kd ([8]; 250 mM KPi): 5.2 ± 0.2 µM
ΔFmax ([8]; 250 mM KPi): 9.3±0.2%
maximal fluorescence change ([8]; over all salt concentrations): 9–11%
transport into OpuA-containing proteoliposomes [3]: transported against a concentration gradient; also recorded: transport against a large concentration gradient
Kd [9]: 4 to 6 µM and 5 to 6 µM
Kd [10]: ~500 nM
